For orientation: cell viability means a read-out of living cells in per cent, often relative to untreated cells. A high value points to less harm to the cells.

For this series, the system named is C2C12 mouse myoblast cells. As to the kind of experiment: MTT assay of film leachate toxicity. The format is cell-based. The conditions noted are these: 24 h exposure. As to the method: Toxicity studies were also performed using the MTT assay to evaluate whether films of 3.0a-c on stainless steel would release toxic levels of paclitaxel or any other leachate during a defined incubation period in cell culture media.
Preparation of leachate: Test samples were melt-pressed to a thickness of 0.4 mm. The melt pressed film was then cut into squares of 1 cm×1 cm. Samples were sterilized by washing with 70% ethanol and subsequently dried for 2 h under UV light. […]
MTT assay: C2C12 mouse myoblast cells were seeded in a Nunclon™ 96-well U bottom transparent polystrol plate to obtain 10,000 cells/well in 100 μL of DMEM containing serum, glutamax and antibiotics as described above. […] After shaking (1 second, 2 mm amp, 654 rpm), the absorbance of the wells at 540 nm was read using an M1000-Pro plate reader (Tecan). The absorbance of wells not containing cells but treated by all of the above steps was subtracted as a background and the cell viability was calculated relative to wells containing cells that were exposed to just culture medium. No (0%) cell viability was detected for the cells exposed to the highest concentrations of the positive control sodium lauryl sulfate, confirming the sensitivity of the assay.
(Tetrazolium dyes change colour on reduction, which living cells bring about.)

As to `CCCCCCCCCCCCOS(=O)(=O)[O-].[Na+]` [SDS, sodium dodecyl sulfate], the cell viability runs as follows: (at 0.2 μg/mL) under 10%; (highest concentrations of the positive control) 0%.

Source of the values: patent US20170258970A1, “POLYMER-DRUG CONJUGATE BASED ON A POLYISOOLEFIN-BASED COPOLYMER” (ARLANXEO Singapore Pte. Ltd., priority 2014, published 2017).
